From patent US12102631B2, “Quinolylnitrones for the treatment and prevention of a cerebral stroke or ischaemia” (ISQUAEMIA BIOTECH, S.L., priority 2018, dated 2024)

Assays:
[1] = tested on: global cerebral ischemia in Wistar rats; test: Neurological deficit score after transient global cerebral ischemia (four-vessel occlusion); format: in vivo; conditions: 5 days of reperfusion, vehicle 3.3±0.21
Method: (§1) Animal model of global cerebral ischemia, experimental design and administration of nitrones. Transient forebrain ischemia was induced in adult male Wistar rats (10-12 weeks, Charles River) by the standard four-vessel occlusion model (4V0) previously described.^44,56 Briefly, both vertebral arteries were irreversibly occluded by electrocoagulation under anesthesia with a mixture of atropine, ketamine and diazepam (0.25, 62.5, and 5 mg/kg, respectively) delivered by intraperitoneal injection. After 24 h, ischemia was induced by carotid occlusion with atraumatic clips for 15 min and then clips were removed from the carotid arteries to allow reperfusion. Body temperature of 37° C. was maintained. The animals were studied after 5 days of reperfusion (R5 d). We performed a power analysis (http://www.biomath.info/power/ttest.htm) to determine the sample size. We chose the significant level at 0.05, the power set at 0.8 (80%), and a ratio of control/treated group of 2:1, and the sample size obtained was 10 subjects per control group and <6 subjects per treated group. […]
Animals were subjected to 15 min of cerebral ischemia, treated with vehicle or QN 23 at the onset of reperfusion period, and studied after 5 days of reperfusion (R5 d). We evaluated the neurological deficit score (NDS) to assess the effect of QN 23 following global ischemia-reperfusion in R5 d animals. […]

[2] = tested on: global cerebral ischemia in Wistar rats; test: Neuronal death by Fluoro-Jade B staining after global cerebral ischemia; format: in vivo; conditions: R5 d
Method: as §1, with “group. A total of 26 ischemic animals were used for the study of nitrone 23 efficacy. Here 6 animals were treated with 1.5 mg/kg of nitrone 23, or 40 mg/kg of compound 2, and 14 animals were included in control (vehicle) group, two of which died after 2 days. The treatments were performed with allocated concealment, assigning a random order to each vehicle or treated animal by computer-generated randomization program.” for “group.”
Neuronal death evaluation. Neuronal death was evaluated by Fluoro-Jade-B staining. Brain cryosections (10 μm thick) from ischemic animals that underwent reperfusion for 5 days were used after fixation to detect neuronal death by Fluoro-Jade-B staining,^44 and visualized by fluorescence microscopy. Labeled (dead) neuronal cells (in green) were counted as in TUNEL assay (see below). Data from different animals of each experimental group were independently analyzed by two observers, and treatment information was blindly performed throughout the study. […]

[3] = tested on: global cerebral ischemia in Wistar rats; test: Neuronal apoptosis by TUNEL assay after global cerebral ischemia; format: in vivo; conditions: R5 d
Method: as §1, with “group. A total of 26 ischemic animals were used for the study of nitrone 23 efficacy. Here 6 animals were treated with 1.5 mg/kg of nitrone 23, or 40 mg/kg of compound 2, and 14 animals were included in control (vehicle) group, two of which died after 2 days. The treatments were performed with allocated concealment, assigning a random order to each vehicle or treated animal by computer-generated randomization program. Ischemic animals were treated with nitrone 23 diluted in 10% ethanol in saline as vehicle by intraperitoneal injection when the carotid arteries were unclamped for reperfusion.” for “group.”
TUNEL assay. Apoptotic neurons within brain sections were detected using the Terminal deoxynucleotidyl transferase-mediated dUTP Nick-End Labeling (TUNEL) assay (Promega). […]
The hippocampal CA1 subfield and cerebral and lateral cortex fields from a given section were analyzed with fluorescence microscopy (40× objective) to count the number of apoptotic nuclei (green). […]

tMCAO in C57BL/6 mice = conditions: 40 mg/kg; data recently reported by the group; cited from earlier work
[4] = tested on: primary neuronal cultures subjected to OGD; test: Lipid peroxidation (MDA) in primary neuronal cultures after OGD; format: cell-based, rat; conditions: 4 h recovery after 4 h OGD; significant at 100 μM
Method: Lipid peroxidation. Lipid peroxidation was evaluated by the detection of end products such as malondialdehyde (MDA) as a result of oxidative attack to polyunsaturated lipids. Lipid peroxidation was determined by the reaction of MDA with thiobarbituric acid (TBA) to form a colorimetric/fluorometric product, proportional to the MDA present. After recovery period for 4 h, cells (1.5×10^6) were lysed and centrifuged according to the supplier instructions (Sigma, MAK085), and then the thiobarbituric acid was added to the supernatant and mixed in a vortex. The samples were incubated at 95° C. for 60 min, cooled to room temperature and then n-butanol and 5M NaCl were added in a reaction mixture 8:3:1 (v/v) sample:n-butanol:NaCl. After mixed in a vortex, the samples were centrifuged, the n-butanol layer was taken and evaporated, the MDA-TBA adducts were dissolve in water and the absorbance was measured at 540 nm.
Exposure of neuronal cultures to 4 h OGD induced significant ROS generation after 2 h recovery in normoxic and normoglycemic conditions (R2 h) (210%, p<0.005 compared with 100% control) (FIG. 5A). […] ROS generation may induce lipid peroxidation and cell membrane damage. […]

[5] = 1.5 mg/kg i.p., compared with vehicle

CC(C)(C)/[N+]([O-])=C/c1ccc(S(=O)(=O)O)cc1S(=O)(=O)O [Compound 2, sodium (Z)-4-((tert-butyloxidoazanylidene)methyl)benzene-1,3-disulfonate, reference compound]
neurological deficit score (NDS) ([1]; 40 mg/kg): 2.5±0.28
effect on neuronal death, CA1 and cortical regions (in words) ([2]; 40 mg/kg): did not produce a significant effect
effect on neuronal apoptosis (in words) ([3]; 40 mg/kg): induced a decrease of neuronal apoptosis, although it was not significant
size of the ischemic lesion (in words) (tMCAO in C57BL/6 mice): did not reduce the size of the ischemic lesion

COc1ccc2nc(Cl)c(/C=[N+](\[O-])C(C)(C)C)cc2c1 [Compound 23, (Z)—N-tert-Butyl-1-(2-chloro-6-methoxyquinolin-3-yl)methanimine oxide]
lipid peroxidation [4]: significantly decreased compared to R4 h value
neurological deficit score (NDS) ([1]; 1.5 mg/kg i.p. at onset of reperfusion): 2.0±0.44
decrease of neuronal death, CA1 region [2, 5]: 33%
decrease of neuronal death, cortical region [2, 5]: 90%
decrease of neuronal apoptosis, CA1 region ([3]; 1.5 mg/kg): 39%
decrease of neuronal apoptosis, cerebral cortex ([3]; 1.5 mg/kg): 84%
